# Measurements from patent US9668481B2, “Triazole derivatives” (priority 2013, dated 2017).
# Where two headings read alike, the source gives them in different places. Marks after values point to notes of the source that are not given here.
# Key:
# Sphaerotheca fuliginea = assay: In vivo preventive test on Sphaerotheca fuliginea (powdery mildew on cucurbits); conditions: gherkin plants, preventive spray, evaluated 15 days after inoculation
# Procedure: (§1) The young plants of gherkin are treated by spraying the active ingredient prepared as described above. Control plants are treated only with an aqueous solution of acetone/Dimethyl sulfoxide/Tween®. After 24 hours, the plants are contaminated by spraying the leaves with an aqueous suspension of Sphaerotheca fuliginea spores.
# Uromyces appendiculatus = assay: In vivo preventive test on Uromyces appendiculatus (bean rust); conditions: bean plants, preventive spray, evaluated 11 days after inoculation
# Procedure: as §1, with “bean” for “gherkin”, “Uromyces appendiculatus” for “Sphaerotheca fuliginea”
# Botrytis cinerea = assay: In vivo preventive test on Botrytis cinerea (grey mould); conditions: 100 ppm of active ingredient; gherkin plants, preventive spray; evaluated 4 to 5 days after inoculation
# Procedure: as §1, with “Botrytis cinerea” for “Sphaerotheca fuliginea”, “spores. The contaminated gherkin plants are incubated for 4 to 5 days at 17° C. and at 90% relative humidity.” for “spores.”
# Septoria tritici = assay: In vivo preventive test on Septoria tritici (leaf spot on wheat); conditions: 500 ppm of active ingredient; wheat plants, preventive spray; evaluated 24 days after inoculation
# Procedure: as §1, with “wheat” for “gherkin”, “Septoria tritici” for “Sphaerotheca fuliginea”
# Puccinia recondita = assay: In vivo preventive test on Puccinia recondita (brown rust on wheat); conditions: 500 ppm of active ingredient; wheat plants, preventive spray; evaluated 11 days after inoculation
# Procedure: as §1, with “wheat” for “gherkin”, “Puccinia recondita” for “Sphaerotheca fuliginea”
# Pyrenophora teres = assay: In vivo preventive test on Pyrenophora teres (net blotch on barley); conditions: 500 ppm of active ingredient; barley plants, preventive spray; evaluated 14 days after inoculation
# Procedure: as §1, with “barley” for “gherkin”, “Pyrenophora teres” for “Sphaerotheca fuliginea”
# Leptosphaeria nodorum = Leptosphaeria nodorum test (wheat)/preventive; assay type: in vivo; conditions: 500 ppm of active ingredient, preventive, evaluated 8 days after inoculation
# Procedure: Solvent: 49 parts by weight of N,N-dimethylacetamide Emulsifier: 1 part by weight of alkylaryl polyglycol ether To produce a suitable preparation of active compound, 1 part by weight of active compound or active compound combination is mixed with the stated amounts of solvent and emulsifier, and the concentrate is diluted with water to the desired concentration. To test for preventive activity, young plants are sprayed with the preparation of active compound or active compound combination at the stated rate of application. After the spray coating has been dried, the plants are sprayed with a spore suspension of Leptosphaeria nodorum. […] The plants are placed in the greenhouse at a temperature of approximately 22° C. and a relative atmospheric humidity of approximately 80%.
# [1] = system: Blumeria graminis fsp. hordei; assay: Blumeria test (barley)/preventive; assay type: in vivo; conditions: 500 ppm of active ingredient, preventive, evaluated 7 days after inoculation
# Procedure: Solvent: 49 parts by weight of N,N-dimethylacetamide Emulsifier: 1 part by weight of alkylaryl polyglycol ether To produce a suitable preparation of active compound, 1 part by weight of active compound or active compound combination is mixed with the stated amounts of solvent and emulsifier, and the concentrate is diluted with water to the desired concentration. To test for preventive activity, young plants are sprayed with the preparation of active compound or active compound combination at the stated rate of application. After the spray coating has been dried, the plants are dusted with spores of Blumeria graminis fsp. hordei. The plants are placed in the greenhouse at a temperature of approximately 18° C. and a relative atmospheric humidity of approximately 80% to promote the development of mildew pustules.
# [2] = system: Fusarium nivale (var. majus); assay: Fusarium nivale (var. majus)-test (wheat)/preventive; assay type: in vivo; conditions: 500 ppm of active ingredient, preventive, evaluated 5 days after inoculation
# Procedure: Solvent: 49 parts by weight of N,N-dimethylacetamide Emulsifier: 1 part by weight of alkylaryl polyglycol ether To produce a suitable preparation of active compound, 1 part by weight of active compound or active compound combination is mixed with the stated amounts of solvent and emulsifier, and the concentrate is diluted with water to the desired concentration. To test for preventive activity, young plants are sprayed with the preparation of active compound or active compound combination at the stated rate of application. After the spray coating has been dried, the plants are slightly injured by using a sandblast and afterwards they are sprayed with a conidia suspension of Fusarium nivale (var. majus).
structure (smiles),measurement,setting,value
CC(C)(C)C(O)(Cc1cnc2ccccc2c1)Cn1cncn1 (stereo not shown) [Example I-1],LogP,pH 2.7,1.18^[a]
CC(C)(C)C(O)(Cc1ccc(Cl)nc1)Cn1cncn1 (stereo not shown) [Example I-2],Eff. %,Sphaerotheca fuliginea; 500 ppm of active ingredient,98%
same,Eff. %,Uromyces appendiculatus; 500 ppm of active ingredient,77%
same,LogP,pH 2.7,1.98^[b]; 1.98^[a]
same,LogP,pH 7.8,1.98^[b]; 1.98^[a]
CC(C)(C)C(O)(Cc1ccc2ccccc2n1)Cn1cncn1 (stereo not shown) [Example I-8],Eff. %,Sphaerotheca fuliginea; 100 ppm of active ingredient,79%
same,LogP,"method [a]: LC-MS at pH 2.7, 0.1% formic acid in water / acetonitrile gradient",1.51^[a]
CC(C)(C)C(O)(Cc1cc(Cl)nc(Cl)c1)Cn1cncn1 (stereo not shown) [Example I-9],Eff. %,Sphaerotheca fuliginea; 100 ppm of active ingredient,97%
same,LogP,pH 2.7,2.64^[a]
CC(C)(C)C(O)(Cc1ccnc2ccccc12)Cn1cncn1 (stereo not shown) [Example I-10],Eff. %,Sphaerotheca fuliginea; 100 ppm of active ingredient,97%
same,Eff. %,Uromyces appendiculatus; 100 ppm of active ingredient,85%
same,LogP,pH 2.7,1.17^[a]
CC(C)(C)C(O)(Cc1cc(Cl)cc(Cl)n1)Cn1cncn1 (stereo not shown) [Example I-11],LogP,pH 2.7,2.86^[a]
CC(C)(C)C(O)(Cc1ccc(Cl)c(Cl)n1)Cn1cncn1 (stereo not shown) [Example I-12],LogP,pH 2.7,2.78^[a]
CC(C)(C)C(O)(Cc1cccc(Cl)n1)Cn1cncn1 (stereo not shown) [Example I-13],LogP,pH 2.7,2.30^[a]
CCC(C)(C)C(O)(Cc1ccnc(Cl)c1)Cn1cncn1 (stereo not shown) [Example I-14],Eff. %,Sphaerotheca fuliginea; 100 ppm of active ingredient,100%
same,Eff. %,Botrytis cinerea,87%
same,LogP,pH 2.7,2.27^[a]
CC(C)(C)C(O)(Cc1ccnc(Cl)c1)Cn1cncn1 (stereo not shown) [Example I-15],Eff. %,Sphaerotheca fuliginea; 100 ppm of active ingredient,100%
same,Eff. %,Uromyces appendiculatus; 100 ppm of active ingredient,91%
same,LogP,pH 2.7,1.93^[a]
CC(C)(C)C(O)(Cc1cc(Cl)ncc1F)Cn1cncn1 (stereo not shown) [Example I-16],Eff. %,Sphaerotheca fuliginea; 100 ppm of active ingredient,100%
same,Eff. %,Uromyces appendiculatus; 100 ppm of active ingredient,84%
same,LogP,pH 2.7,2.16^[a]
CC(C)(C)C(O)(Cc1cncc(Cl)n1)Cn1cncn1 (stereo not shown) [Example I-17],LogP,pH 2.7,1.89^[a]
CC(C)(C)C(O)(Cc1nccnc1Cl)Cn1cncn1 (stereo not shown) [Example I-18],LogP,pH 2.7,2.01^[a]
Cc1ncc(CC(O)(Cn2cncn2)C(C)(C)C)nc1Cl (stereo not shown) [Example I-19],LogP,pH 2.7,2.10^[a]
Cc1cnc(CC(O)(Cn2cncn2)C(C)(C)C)c(Cl)n1 (stereo not shown) [Example I-20],LogP,pH 2.7,2.21^[a]
CC(C)(C)C(O)(Cc1cnccn1)Cn1cncn1 (stereo not shown) [Example I-21],LogP,pH 2.7,1.39^[a]
CC(C)(C)C(O)(Cc1cc(Cl)ccn1)Cn1cncn1 (stereo not shown) [Example I-22],LogP,pH 2.7,1.87^[a]
Cc1cccc(CC(O)(Cn2cncn2)C(C)(C)C)n1 (stereo not shown) [Example I-23],LogP,pH 2.7,0.63^[a]
CCOC(=O)OC(Cc1cccnc1Cl)(Cn1cncn1)C(C)(C)C (stereo not shown) [Example I-24],Eff. %,Septoria tritici,100%
same,Eff. %,Sphaerotheca fuliginea; 500 ppm of active ingredient,100%
same,Eff. %,Puccinia recondita,86%
same,Eff. %,Pyrenophora teres,75%
same,Eff. %,Uromyces appendiculatus; 500 ppm of active ingredient,97%
same,LogP,pH 2.7,2.67
same,LogP,pH 7.8,2.56
CC(C)(C)C(O)(Cc1cncc(Oc2ccc(Cl)cc2)n1)Cn1cncn1 (stereo not shown) [Example I-25],Eff. %,Puccinia recondita,71%
same,LogP,pH 2.7,2.98^[a]
COC(C)(C)C(O)(Cc1ccncc1Cl)Cn1cncn1 (stereo not shown) [Example I-26],Eff. %,Septoria tritici,97%
same,Eff. %,Sphaerotheca fuliginea; 500 ppm of active ingredient,100%
same,Eff. %,Puccinia recondita,89%
same,Eff. %,Pyrenophora teres,71%
same,Eff. %,Uromyces appendiculatus; 500 ppm of active ingredient,100%
same,LogP,pH 2.7,1.48^[a]
CC(C)(C)C(O)(Cc1c(Cl)cncc1Cl)Cn1cncn1 (stereo not shown) [Example I-28],LogP,pH 2.7,2.34^[a]
OC(Cc1ccncc1Cl)(CC1CC1)Cn1cncn1 (stereo not shown) [Example I-30],Eff. %,Leptosphaeria nodorum,88%
same,Eff. %,Septoria tritici,100%
same,Eff. %,[1],100%
same,Eff. %,Sphaerotheca fuliginea; 500 ppm of active ingredient,100%
same,Eff. %,Puccinia recondita,94%
same,Eff. %,Pyrenophora teres,71%
same,Eff. %,Uromyces appendiculatus; 500 ppm of active ingredient,100%
same,LogP,pH 2.7,1.43^[a]
same,Eff. %,[2],100%
CC(C)CCC(O)(Cc1ccncc1Cl)Cn1cncn1 (stereo not shown) [Example I-31],Eff. %,Septoria tritici,100%
same,Eff. %,Sphaerotheca fuliginea; 500 ppm of active ingredient,100%
same,Eff. %,Puccinia recondita,89%
same,Eff. %,Uromyces appendiculatus; 500 ppm of active ingredient,96%
same,LogP,pH 2.7,2.00^[a]
CCOC(C)(C)C(O)(Cc1ccncc1Cl)Cn1cncn1 (stereo not shown) [Example I-32],Eff. %,Sphaerotheca fuliginea; 500 ppm of active ingredient,98%
same,Eff. %,Puccinia recondita,83%
same,Eff. %,Uromyces appendiculatus; 500 ppm of active ingredient,99%
same,LogP,pH 2.7,1.90
same,LogP,pH 7.8,2.04
CC(C)(C)C(O)(Cc1nc(Cl)ccc1Cl)Cn1cncn1 (stereo not shown) [Example I-33],LogP,pH 2.7,2.82^[a]
